Measurements as given in patent publication US20230000852A1, “Treatment of Dermal Cytokine Storm Syndromes” (Bridge Pharma, Inc., priority 2021, published 2023).

Columns and labels:
MIP-1a = assay: PHA-induced MIP-1a release from human leucocytes (buffy coats); format: cell-based; conditions: Leucocyte, 30 min pre-incubation, PHA 5 μg/ml 16 hours
Method: (§1) The objective of this study was to assess the ability of norketotifen to inhibit cytokine release from stimulated human leucocytes.
(§2) The study was conducted in two phases. The first phase included optimization of the test methodology and including dose-range finding studies, using buffy coats from 3 human donors, stimulated with phytohemagglutinin (PHA). Following optimization of the test conditions, a final protocol was issued. In the ensuing Main Study, white blood cells (buffy coats) from 5 healthy human donors were stimulated with PHA, 5 μg/ml. The concentrations of the test article and the duration of exposure were optimized to obtain acceptable dose-response ratios. Thus, the inhibitory effects of three concentrations of NK and one concentration of ketotifen were evaluated in the Main Study. The buffy coats containing white blood cells from 5 male human donors were resuspended in assay media and were pre-incubated for 30 min with either vehicle/saline, ketotifen 4.3 μg/ml (10 μM) and norketotifen 0.4 μg/ml, 4.1 μg/ml and 41 μg/ml (1.0; 10 and 100 μM). Following these preincubations, the white blood cells were stimulated for 16 hours with PHA, 5 μg/ml. The cell system supernatants were then harvested and stored frozen pending analyses.
(§3) The concentration of the test articles had to be high in this ex vivo study since the test kit used a high concentration of the agonist PHA (5 μg/ml) and a long exposure time (16 hrs).

IL-4 = assay: PHA-induced IL-4 release from human leucocytes (buffy coats); format: cell-based; conditions: Leucocyte, 30 min pre-incubation, PHA 5 μg/ml 16 hours
Method: as §1, §2, §3

IL-6 = assay: PHA-induced IL-6 release from human leucocytes (buffy coats); format: cell-based; conditions: Leucocyte, 30 min pre-incubation, PHA 5 μg/ml 16 hours
Method: as §1, §2, §3

IL-2 = assay: PHA-induced IL-2 release from human leucocytes (buffy coats); format: cell-based; conditions: Leucocyte, 30 min pre-incubation, PHA 5 μg/ml 16 hours
Method: as §1, §2, §3

IL-8 = assay: PHA-induced IL-8 release from human leucocytes (buffy coats); format: cell-based; conditions: Leucocyte, 30 min pre-incubation, PHA 5 μg/ml 16 hours
Method: as §1, §2, §3

sedation [1] = conditions: art-accepted mouse model of sedation; U.S. Pat. Nos. 7,226,934 and 7,557,128; cited from earlier work
IL-1β = assay: PHA-induced IL-1β release from human leucocytes (buffy coats); format: cell-based; conditions: Leucocyte, 30 min pre-incubation, PHA 5 μg/ml 16 hours
Method: as §1, §2, §3

sedation [2] = conditions: humans, oral; U.S. Pat. Nos. 9,138,431 and 9,345,697; cited from earlier work
[3] = test system: human leucocytes (buffy coats); assay: Cytokine and chemokine release from stimulated human leucocytes, overall; format: cell-based; conditions: PHA 5 μg/ml, 16 hours
Method: as §1
as §2, with “analyses. […]” for “analyses.”

INF-γ = assay: PHA-induced INF-γ release from human leucocytes (buffy coats); format: cell-based; conditions: Leucocyte, 30 min pre-incubation, PHA 5 μg/ml 16 hours
Method: as §1, §2, §3

[4] = test system: IMQ-induced psoriasiform hypercytokinemia; assay: Imiquimod (IMQ) induced psoriasis in mice; format: in vivo; conditions: for Scratching bouts: Day 6, 30 minutes observation; for Total Scores ± SEM: cumulative erythema plus scaling plus thickness; for Mean Scores of Skin Lesions: Redness / Mean Scores of Skin Lesions: Scaling / Mean Scores of Skin Lesions: Thickness: scale 0 to 4
Description: The objective of this study was to assess the ability of NK to inhibit the IMQ-induced psoriasiform hypercytokinemia in mice. Topically applied IMQ is known to induce a psoriasis-like Cytokine Storm in mice by releasing a large number of cytokines, thereby causing a disease (hypercytokinemia) that is closely similar to psoriasis in human patients. Female BALB/c mice were used (8-11 weeks old; 4 animals/group). A psoriasiform skin condition was induced by repeated applications of an IMO-cream on the pre-shaved skin of the back of mice for 6 days, using […] 5% cream (IMQ-cream), at a dose of 62.5 mg per mouse, which is equal to 3.125 mg active per mouse. Starting from day 3 of dosing the skin was scored for Redness, Thickness and Scaling using a scoring system on the scale of 0 to 4, where 0=none; 1=slight; 2=moderate; 3=marked; and 4=very marked. The cumulative scores (erythema plus scaling plus thickness) served as a measure of the severity of dermal, psoriasis-like inflammation. […] A scratch bout was defined as one or more rapid back-and-forth hind paw motions directed toward and contacting the IMQ-treated area. • Group 1: (IMQ Positive Control Group): 4 mice were treated as described above. • Group 2: 4 mice were given NK 10 mg/kg/day, PO, starting 3 days before the first application of IMQ. • Group 3: same treatment as Group 2, but the dose of NK was 20 mg/kg/day. • Group 4: same treatment as Group 3, but the dose of NK was 30 mg/kg/day. ANOVA (Dunnett's Method)-positive control (IMQ) vs test groups. The methodology used here was the van der Fits (2009) method with minor modifications.

IL-10 = assay: PHA-induced IL-10 release from human leucocytes (buffy coats); format: cell-based; conditions: Leucocyte, 30 min pre-incubation, PHA 5 μg/ml 16 hours
Method: as §1, §2, §3

IL-13 = assay: PHA-induced IL-13 release from human leucocytes (buffy coats); format: cell-based; conditions: Leucocyte, 30 min pre-incubation, PHA 5 μg/ml 16 hours
Method: as §1, §2, §3

MCP-1 = assay: PHA-induced MCP-1 release from human leucocytes (buffy coats); format: cell-based; conditions: Leucocyte, 30 min pre-incubation, PHA 5 μg/ml 16 hours
Method: as §1, §2, §3

[5] = test system: IL31-induced (SC) pruritus; assay: IL-31-induced pruritus in mice; format: in vivo; conditions: at the dose tested
Method: To determine if NK inhibits IL31-induced pruritus in mice. Studies have now been performed, using murine IL31 as a pruritogen. Mice were dosed orally with a test article exactly 60 minutes before murine IL31 at a dose of 1.0 μg/30 gram body weight was injected subcutaneously into a previously depilated area on the rostral part of the back of mice. IL31 was dissolved in phosphate buffered saline (PBS) with 0.1% bovine serum albumin (BSA). The injected volume was 0.1 ml/mouse. The bouts of scratching were counted for 120 min, starting 30 min after the injection of IL31. The bouts of scratching were counted by trained laboratory personnel who were unaware of the pretreatment of the animals. Oclacitinib (Apoquel®) is a Janus kinase inhibitor that is the worldwide market leader for oral treatment of atopic dermatitis in dogs.

## O=C1Cc2ccccc2C(=C2CCNCC2)c2ccsc21 (racemic) [NK, norketotifen]
MIP-1a; 1 uM
  inhibition at 1 µM: 9.53%
MIP-1a; 10 uM
  inhibition at 10 µM: 25.9%
MIP-1a; 100 uM
  inhibition at 100 µM: 91%
IL-4; 1 uM
  inhibition at 1 µM: 0%
IL-4; 10 uM
  inhibition at 10 µM: 14.3%
IL-4; 100 uM
  inhibition at 100 µM: 98.3%
IL-6; 1 uM
  inhibition at 1 µM: 0%
IL-6; 10 uM
  inhibition at 10 µM: 33.1%
IL-6; 100 uM
  inhibition at 100 µM: 88.2%
IL-2; 1 uM
  inhibition at 1 µM: 0%
IL-2; 10 uM
  inhibition at 10 µM: 46.6%
IL-2; 100 uM
  inhibition at 100 µM: 93.5%
IL-8; 1 uM
  inhibition at 1 µM: 10.3%
IL-8; 10 uM
  inhibition at 10 µM: 34.4%
IL-8; 100 uM
  inhibition at 100 µM: 78.3%
Sedation [1]
  Sedative effects: significant sedative effects
IL-1β; 1 uM
  inhibition at 1 µM: 0%
IL-1β; 10 uM
  inhibition at 10 µM: 16.2%
IL-1β; 100 uM
  inhibition at 100 µM: 57%
Sedation [2]
  Sedative side effects: free from sedative side effects
[3]
  Inhibition of release of cytokines and chemokines from human white blood cells (in words): dose-dependently inhibited
INF-γ; 1 uM
  inhibition at 1 µM: 0%
INF-γ; 10 uM
  inhibition at 10 µM: 16.5%
INF-γ; 100 uM
  inhibition at 100 µM: 71.6%
[4]; NK 10 mg/kg/day PO from 3 days before IMQ
  Scratching bouts: 7.0
[4]; NK 10 mg/kg/day oral
  Total Scores ± SEM: 1.5 ± 0.65
  Mean Scores of Skin Lesions: Redness: 0.75
  Mean Scores of Skin Lesions: Scaling: 0.25
  Mean Scores of Skin Lesions: Thickness: 0.5
[4]; NK 20 mg/kg/day PO from 3 days before IMQ
  Scratching bouts: 4.25
[4]; NK 20 mg/kg/day oral
  Total Scores ± SEM: 0.5 ± 0.29
  Mean Scores of Skin Lesions: Redness: 0.5
  Mean Scores of Skin Lesions: Scaling: 0
  Mean Scores of Skin Lesions: Thickness: 0
[4]; NK 30 mg/kg/day oral
  Total Scores ± SEM: 0.33 ± 0.33
  Mean Scores of Skin Lesions: Redness: 0.33
  Mean Scores of Skin Lesions: Scaling: 0
  Mean Scores of Skin Lesions: Thickness: 0
[4]; antipruritic activity and redness, thickness, scaling scores
  Inhibition of psoriasis-related cytokine storm (in words): almost completely inhibited
[4]; oral NK, not statistically significant (p>0.05)
  Effect on scratching in mice (in words): dose-dependent effect
IL-10; 1 uM
  inhibition at 1 µM: 12.7%
IL-10; 10 uM
  inhibition at 10 µM: 24.8%
IL-10; 100 uM
  inhibition at 100 µM: 90.4%
IL-13; 1 uM
  inhibition at 1 µM: 0%
IL-13; 10 uM
  inhibition at 10 µM: 34.5%
IL-13; 100 uM
  inhibition at 100 µM: 74.2%
MCP-1; 1 uM
  inhibition at 1 µM: 2.04%
MCP-1; 10 uM
  inhibition at 10 µM: 14.3%
MCP-1; 100 uM
  inhibition at 100 µM: 84.5%
[5]
  Effect on IL-31-induced pruritus (in words): decreased IL-31-induced pruritus
